# In ChEMBL document CHEMBL4017548, “Molecular Hybridization of Potent and Selective γ-Hydroxybutyric Acid (GHB) Ligands: Design, Synthesis, Binding Studies, and Molecular Modeling of Novel 3-Hydroxycyclopent-1-enecarboxylic Acid (HOCPCA) and trans-γ-Hydroxycrotonic Acid (T-HCA) Analogs” (J Med Chem, 2017):
# Experiment: Displacement of [3H]NCS-382 from GHB binding site in Sprague-Dawley rat brain synaptosomal membranes after 1 hr by scintillation counting method
SMILES,Ki [µM],pKi
O=C(O)C1=CCCC1,31,4.51
O=C(O)C#CCO,4.3,5.5
O=C(O)C1=CC(O)CC1 (stereo not drawn),0.13 to 0.16,6.89
O=C(O)/C=C/C1(O)CCCCC1,4.3,5.37
O=C(O)C1=C(c2ccc(Cl)cc2)C(O)CC1 (stereo not drawn),70,4.16
O=C(O)C#CC1(O)CCC1,1.6,5.78
COc1ccc(C2=C(C(=O)O)CCC2O)cc1 (stereo not drawn),> 300,–
O=C(O)C1=CC(c2ccccc2)CC1 (stereo not drawn),16,4.8
O=C(O)C1=CC(c2ccc(OCc3ccccc3)cc2)CC1 (stereo not drawn),1.6,5.77
CCC1=C(C(=O)O)CCC1O (stereo not drawn),> 300,–
O=C(O)C1=CC(c2ccc(-c3ccccc3)cc2)CC1 (stereo not drawn),3.2,5.49
O=C(O)C1=C[C@H](O)CC1,0.11,–
O=C(O)[C@@H]1CC[C@@](O)(c2ccccc2)C1,53,4.28
O=C(O)C1=C(c2ccccc2)C(O)CC1 (stereo not drawn),48,4.32
O=C(O)C#CC1(O)CCCCC1,7.7,5.12
O=C(O)C1=C(Cc2ccccc2)C(O)CC1 (stereo not drawn),38,4.43
O=C(O)C1CC(O)C1 (stereo not drawn),70,4.16
Cc1ccc(C2=C(C(=O)O)CCC2O)cc1 (stereo not drawn),157,3.81
O=C(O)/C=C/C1(O)CCCC1,3.1,5.51
O=C(O)C1=C(c2ccc(Cl)c(Cl)c2)C(O)CC1 (stereo not drawn),62,4.21
O=C(O)/C=C/C(O)c1ccc(OCc2ccccc2)cc1 (stereo not drawn),0.043,7.43

SMILES,Ki [µM],pKi
COc1cccc(CC2=C(C(=O)O)CCC2O)c1 (stereo not drawn),46,4.43
O=C(O)C1=CC(c2ccccc2O)CC1 (stereo not drawn),4.6,5.34
CC1=C(C(=O)O)CCC1O (stereo not drawn),80,4.1
O=C(O)C1=C[C@@H](O)CC1,1.4,–
O=C(O)C#CC1(O)CCCC1,2.7,5.57
O=C(O)[C@@H]1CC[C@@](O)(c2ccc(-c3ccccc3)cc2)C1,0.51,6.29
O=C(O)C1CCC(O)C1 (stereo not drawn),20,4.71
O=C(O)/C=C/C(O)c1ccc(OCc2ccc(Br)cc2)cc1 (stereo not drawn),0.023,7.64
O=C(O)/C=C/C1(O)CCC1,3.5,5.47
C=CCC1=C(C(=O)O)CCC1O (stereo not drawn),> 300,–
O=C(O)/C=C/C(O)c1ccc(CCc2ccccc2)cc1 (racemic),0.042,7.39
O=C(O)/C=C/C(O)c1ccc(Cc2ccccc2)cc1 (racemic),0.042,7.38
O=C(O)C#CC(O)c1ccc(OCc2ccccc2)cc1 (racemic),1.6,5.8
O=C(O)/C=C/C(O)c1ccc(-c2ccccc2)cc1 (racemic),0.075,7.14
O=C(O)C#CC(O)Cc1ccccc1 (racemic),3.5,5.45
O=C(O)[C@@H]1CCC[C@@H](O)C1 (relative stereo),28,4.55
O=C(O)[C@H]1CCC[C@@H](O)C1 (relative stereo),35,4.45
O=C(O)[C@]12CC[C@@H](O)[C@H]1C2 (relative stereo),> 100,–
"O=C(O)/C=C/C(O)c1ccc(Cc2ccccc2)cc1 (single isomer, unassigned; (+))",0.03,7.47
O=C(O)/C=C/C(O)c1ccc(Cc2ccccc2)cc1 (stereo in doubt; (-)-9e),1.16,5.97
O=C(O)CCCO [OXYBATE],3.6,5.44
